Source: patent US20230218765A1, “SMALL MOLECULE DEGRADERS OF SHP2 PROTEIN” (THE REGENTS OF THE UNIVERSITY OF MICHIGAN, priority 2020, published 2023)
pIC50: −log10 of the molar value. Where two headings read alike, the source gives them in different places.

Key:
phosphorylation of ERK [1] = assay: Inhibition of ERK phosphorylation (Western blot) in KYSE520 cells; format: cell-based; conditions: for concentration effective in reducing the level of pERK: KYSE520, 48 h
Protocol: (§1) Western blotting and quantification were performed with regular western blot method and band quantification was performed using ImageJ. Treated cells were lysed by RIPA buffer supplemented with protease and phosphatase inhibitors. The cell lysates were separated by 4-12% SDS-PAGE gels and blotted into PVDF (polyvinylidene difluoride) membranes. The net protein bands and loading controls are calculated by deducting the background from the inverted band value. The final relative quantification values are the ratio of the net band to net loading control.
(§2) GAPDH was used as a loading control. (FIG. 3A and FIG. 3B).

KYSE520 cell line = assay: Cell growth assay (WST-8) in KYSE520; format: cell-based; conditions: for pIC50: KYSE520, 4 days, read-out: IC50, cell growth inhibition
Protocol: (§3) Cell viability was evaluated with a WST-8 assay (Dojindo) following the manufacturer’s instructions. Briefly, cells were seeded in 96-well cell culture plates at a density of 10,000-20,000 cells/well in 200 µL for MV4;11 cell line or 2,000-3,000 for KYSE-520 cell line of culture medium containing serial dilution of testing compounds. After 4 days of treatment, cell growth was measured by a lactate dehydrogenase-based WST-8 assay (Dojindo Molecular Technologies) using a Tecan Infinite M-1000 multimode microplate reader (Tecan US, Morrisville, NC). The WST-8 reagent was added to each well, and cells were incubated for an additional 1-2 h and read at 450 nm. The readings were normalized to the vehicle-treated cells, and the IC50 was calculated by nonlinear regression analysis using the GraphPad Prism 6 software.
(§4) Briefly, Cells were treated with indicated doses for 4 days and cell viability was determined by a colorimetric WST-8 assay.

SHP2 [2] = target: T1, SHP2 (Homo sapiens, UniProt Q06124); assay: SHP2 degradation by Western blot in MV4;11 cells
T1 sequence (Q06124 1-593): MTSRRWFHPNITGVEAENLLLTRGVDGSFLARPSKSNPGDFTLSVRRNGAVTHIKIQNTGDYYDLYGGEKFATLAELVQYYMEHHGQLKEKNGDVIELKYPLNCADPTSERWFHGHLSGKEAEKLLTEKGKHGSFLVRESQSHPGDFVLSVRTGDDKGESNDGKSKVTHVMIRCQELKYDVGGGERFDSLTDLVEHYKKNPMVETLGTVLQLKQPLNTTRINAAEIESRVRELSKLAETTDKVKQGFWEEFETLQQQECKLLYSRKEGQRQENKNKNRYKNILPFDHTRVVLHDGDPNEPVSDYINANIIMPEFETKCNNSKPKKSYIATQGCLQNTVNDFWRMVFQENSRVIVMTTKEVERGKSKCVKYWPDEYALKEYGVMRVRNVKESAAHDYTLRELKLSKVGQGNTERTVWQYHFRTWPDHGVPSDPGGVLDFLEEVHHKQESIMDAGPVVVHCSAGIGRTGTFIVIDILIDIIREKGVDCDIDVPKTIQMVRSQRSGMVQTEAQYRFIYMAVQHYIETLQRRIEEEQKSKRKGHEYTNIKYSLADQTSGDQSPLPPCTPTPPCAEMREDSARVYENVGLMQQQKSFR
Protocol: (§5) Western blotting and quantification were performed with regular western blot method and band quantification was performed using ImageJ. Treated cells were lysed by RIPA buffer supplemented with protease and phosphatase inhibitors. […] The net protein bands and loading controls are calculated by deducting the background from the inverted band value. The final relative quantification values are the ratio of the net band to net loading control.
(§6) The treated cells were harvested and the level of SHP2 protein was examined by blot analysis. GAPDH was used as a loading control.
(§7) SHP2 protein was examined by Western blotting and the protein level was quantified by densitometry and normalized to the corresponding density of the GAPDH protein. […] Cells were treated with 100 nM of SHP2-D26 for different times. SHP2 protein was examined by Western blotting and the GAPDH protein was used as the loading control.

MV4;11 cell line = assay: Cell growth assay (WST-8) in MV4;11; format: cell-based; conditions: for pIC50: MV4;11, 4 days, read-out: IC50, cell growth inhibition
Protocol: as §3, §4

SHP2 [3] = target: T1, SHP2; assay: SHP2 degradation by Western blot in KYSE520 cells
Protocol: as §5, §6, §7

phosphorylation of ERK [4] = assay: Inhibition of ERK phosphorylation (Western blot) in MV4;11 cells; format: cell-based; conditions: for concentration for complete inhibition of pERK: MV4;11, 48 h
Protocol: as §1, §2

SHP2 [5] = target: T1, SHP2; assay: SHP2 allosteric inhibition assay; format: biochemical; conditions: 0.5 nM SHP2, 0.5 µM bisphosphorylated IRS1 peptide, DiFMUP substrate
Protocol: Assay buffer conditions: 60 mM HEPES, pH 7.2, 75 mM NaCl, 75 mM KCl, 0.05% P-20, 5 mM DTT,1 mM EDTA. 0.5 nM of SHP2 was incubated with 0.5 µM of bisphosphorylated IRS1 peptide and 100 µM (top concentration 3X dilution) of the inhibitory compounds. After incubation 60 min at RT, 5 µl 200 µM substrate DiFMUP (Invitrogen) was added and incubated another 30 min at RT. […] The fluorescence signal was detected by CLARIOstar (BMG tech), excitation wavelength was 340 nm and emission wavelength was 450 nm. The inhibitor dose-response curves were analyzed by Graphpad Prism 8.

SMILES: Cc1ncsc1-c1ccc([C@@H](C)NC(=O)[C@H]2C[C@H](O)CN2C(=O)[C@H](NC(=O)CCCCCCCCN2CCN(C(=O)CCC(=O)Nc3cccc(Sc4ncc(N5CCC(C)(N)CC5)nc4N)c3Cl)CC2)C(C)(C)C)cc1 [Compound 26]
- times more potent than SHP099 in inhibition of pERK (phosphorylation of ERK [1]; KYSE520): > 30 times
- concentration effective in reducing the level of pERK (phosphorylation of ERK [1]): 100 nM
- pIC50 (KYSE520 cell line; Homo sapiens, KYSE-520, 96 h): 6.18
- times more potent than SHP099 in inhibiting cell growth (KYSE520 cell line; KYSE520): 28 times
- times more potent than compound 4 in inhibiting cell growth (KYSE520 cell line; KYSE520): 64 times
- times more potent than compound 5 in inhibiting cell growth (KYSE520 cell line; KYSE520): 60 times
- % of SHP2 protein degradation in MV4;11 cell line (SHP2 [2]; 0.1 µM): >95%
- DC50 (SHP2 [2]; read-out: DC50 (concentration needed to induced targeted protein degradation by 50%), MV4;11, 12 h): 2.6 nM
- pIC50 (MV4;11 cell line; Homo sapiens, 96 h): 8.00
- times more potent than SHP099 in cell growth inhibition (MV4;11 cell line; MV4;11): 100 times
- times more potent than compound 4 in cell growth inhibition (MV4;11 cell line; MV4;11): > 400 times
- times more potent than compound 5 in cell growth inhibition (MV4;11 cell line; MV4;11): > 600 times
- % of SHP2 protein degradation in KYSE520 cell line (SHP2 [3]; 0.1 µM): >95%
- % of SHP2 protein degradation in KYSE520 cell line (SHP2 [3]; 1 µM): >95%
- time to reduce the SHP2 protein level (SHP2 [3]; KYSE520, 100 nM): ≤ 4 h
- treatment time for essentially complete SHP2 depletion (SHP2 [3]; KYSE520, 100 nM): 8 h
- DC50 (SHP2 [3]; read-out: DC50 (concentration needed to induced targeted protein degradation by 50%), KYSE520, 12 h): 6 nM
- times more potent than SHP099 in inhibition of pERK (phosphorylation of ERK [4]; MV4;11): > 30 times
- concentration for complete inhibition of pERK (phosphorylation of ERK [4]): 100 nM

SMILES: CC(=O)Nc1cccc(Sc2ncc(N3CCC(C)(N)CC3)nc2N)c1Cl [Compound 5, N-(3-((3-amino-5-(4-amino-4-methylpiperidin-l-yl)pyrazin-2-yl)t′hio)-2-chlorophenyl)acetamide]
- pIC50 (KYSE520 cell line; Homo sapiens, KYSE-520, 96 h): 4.40
- pIC50 (MV4;11 cell line; Homo sapiens, 96 h): 5.18
- pIC50 (SHP2 [5]): 7.01

SMILES: CC1(N)CCN(c2cnc(-c3cccc(Cl)c3Cl)c(N)n2)CC1 [SHP099, reference compound]
- concentration effective in reducing the level of pERK (phosphorylation of ERK [1]): > 3,000 nM
- pIC50 (KYSE520 cell line): 4.74
- pIC50 (MV4;11 cell line): 6.00
- concentration for complete inhibition of pERK (phosphorylation of ERK [4]): > 3,000 nM
